Laboratory results as given in article PMC10178204, “Peptaibol Analogs Show Potent Antibacterial Activity against Multidrug Resistant Opportunistic Pathogens” (International Journal of Molecular Sciences, 2023).
≈ marks a conversion by molar mass, not a printed value. Where “and” joins values, the source holds several entries; their conditions need not be identical. Identical values can stand only once. Like-named read-outs stand apart in the source and are kept apart here. Non-standard residues stand in square brackets, D forms with d. Residues, ends and D or L forms follow the SMILES beside them. *: point of attachment. Leu(ol) = CC(C)C[C@H](N)CO; Octanoyl = CCCCCCCC(=O)*; Aib = CC(C)(N)C(=O)O

Assays:
[1] = tested on: Bacillus subtilis ATCC 6633
Excerpt: (§1) The antibacterial activity of the peptides was initially assessed on a panel of representative Gram-positive and Gram-negative organisms of high clinical relevance and commonly responsible for bacterial infections in both animals and humans. Bacillus subtilis ATCC 6633 (Bsu) was also included as a rod-shaped model Gram-positive organism. This first panel comprised: Enterococcus faecalis ATCC 29212 (Efa); Streptococcus pyogenes ATCC 12344 (Spy); and Staphylococcus aureus ATCC 25923 (Sau); Gram-negative: Escherichia coli CCUGT (Eco), Klebsiella pneumoniae ATCC 13833 (Kpn), Acinetobacter baumannii ATCC 17978 (Aba), and Pseudomonas aeruginosa ATCC 27853 (Pae) (Table 2). Both the minimum inhibitory concentration (MIC, Table 2) and the minimum bactericidal concentration (MBC, Table S1, Supporting Material) were determined.
(§2) The minimum inhibitory concentration (MIC) and the minimum bactericidal concentration (MBC) of the compounds were determined in triplicate using Mueller–Hinton broth (MHB). […] Therefore, we decided to dissolve all peptides in DMSO to a final concentration of 25 mg/mL, for consistency. The bacteria inoculum was 5 × 10^5 CFU/mL, as recommended by CLSI (Document M07-A10, 2015). […] Reference-type strains, including representatives of both Gram-positive bacteria (Bacillus subtilis ATCC 6633, Enterococcus faecalis ATCC 29212, Staphylococcus aureus ATCC 25923, the methicillin-resistant Staphylococcus aureus ATCC 43300 (MRSA), Streptococcus pyogenes ATCC 12344) and Gram-negative bacteria (Escherichia coli CCUGT, Klebsiella pneumoniae ATCC 13833, Pseudomonas aeruginosa ATCC 27853, and Acinetobacter baumannii ATCC 17978), were acquired from ATCC or CCUG culture collections. Other antibiotic-resistant clinical isolates were present in our collection at the University Teaching Hospital (Azienda Ospedaliero-Universitaria Senese ‘Santa Maria alle Scotte’) in Siena, Tuscany, Italy. Specifically, MDR carbapenem-hydrolyzing class D β-lactamase-producing Acinetobacter baumannii and metallo-β-lactamase-producing Pseudomonas aeruginosa were used in this study (Table 4).

[2] = tested on: Staphylococcus aureus ATCC 25923
Excerpt: as §1, §2

Escherichia coli CCUGT = conditions: 18 h; for MIC Eco: MHB, 5 × 10^5 CFU/mL, 35 °C, triplicate
Excerpt: as §1, §2

[3] = tested on: Acinetobacter baumannii ATCC 17978
Excerpt: as §1, §2

[4] = tested on: Pseudomonas aeruginosa ATCC 27853; conditions: for MIC Pae: MHB, 5 × 10^5 CFU/mL, 18 h, 35 °C, triplicate
Excerpt: as §1, §2

[5] = tested on: Streptococcus pyogenes ATCC 12344
Excerpt: as §1, §2

[6] = tested on: Klebsiella pneumoniae ATCC 13833; conditions: for MIC Kpn: MHB, 5 × 10^5 CFU/mL, 18 h, 35 °C, triplicate
Excerpt: as §1, §2

[7] = tested on: Enterococcus faecalis ATCC 29212
Excerpt: as §1, §2

[8] = tested on: S. aureus ATCC 43300 (MRSA); conditions: MHB, 5 × 10^5 CFU/mL, 18 h, 35 °C, triplicate
Description: as §2

[9] = tested on: blood agar plate (Columbia CNA Agar); assay: Hemolysis on blood agar plate; conditions: 35 ± 2 °C, 24 h; for Hemolysis (class): 50 μg peptide (2 μL of 25 mg/mL in DMSO) spotted on blood agar, visual, triplicate; for Hemolysis (d, diameter of hemolysis zone): 50 μg spotted on blood agar, average of triplicate
Description: Hemolysis zones were visually determined and measured. […] For two additional peptides (6 and 15), only a small hemolysis zone (diameter 4–5 mm) was visible, as compared to that of the positive control (Triton X-100, 13 mm).
Briefly, 2 μL of each peptide solution in DMSO (25 mg/mL), corresponding to 50 μg, was spotted on the surface of a blood agar plate (Columbia CNA Agar, Becton Dickinson Italia S.p.A., Florence, Italy). The plate was then incubated at 35 ± 2 °C for 24 h and visually inspected for the presence of hemolysis zones (see Figure S13, Supplementary Material). The experiment was performed in triplicate. Table 2 reports the average value of the diameter of hemolysis zones measured in each individual experiment. Triton X-100 was used as a positive control (diameter of the hemolysis zone: 13 mm), while DMSO was used as a negative control.
Figure S13. Implementation of the hemolysis test as described in Bechlars et al.. After spotting
2 µL (50 µg) of each compound at a random location on the blood agar plate and incubation at 35 ±
2 °C for 24 h, the plates were manually inspected for the presence of hemolysis zones. Triton X-100
and DMSO were used as the positive and negative controls, respectively. Results were interpreted
(1 picture or pasted object on this page, not shown here)

[10] = tested on: P. aeruginosa 101/1477 (IMP-1); conditions: MHB, 5 × 10^5 CFU/mL, 18 h, 35 °C, triplicate
Description: as §2

[11] = tested on: P. aeruginosa VR-143/97 (VIM-1); conditions: MHB, 5 × 10^5 CFU/mL, 18 h, 35 °C, triplicate
Description: as §2

[12] = tested on: P. aeruginosa VA-182/00 (VIM-2); conditions: MHB, 5 × 10^5 CFU/mL, 18 h, 35 °C, triplicate
Description: as §2

[13] = tested on: P. aeruginosa 506/99 (VIM-2); conditions: MHB, 5 × 10^5 CFU/mL, 18 h, 35 °C, triplicate
Description: as §2

[14] = tested on: A. baumannii SI-648 (OXA-23, OXA-51-like); conditions: MHB, 5 × 10^5 CFU/mL, 18 h, 35 °C, triplicate
Description: as §2

[15] = tested on: A. baumannii SI-12 (OXA-23); conditions: MHB, 5 × 10^5 CFU/mL, 18 h, 35 °C, triplicate
Description: as §2

[16] = tested on: A. baumannii SI-310 (OXA-24); conditions: colistin-resistant isolate; MHB, 5 × 10^5 CFU/mL, 18 h, 35 °C, triplicate
Description: as §2

[17] = MHB, 5 × 10^5 CFU/mL, 18 h, 35 °C, triplicate

SMILES | MBC Bsu [1, 17] [µg/mL] | MIC Bsu [1, 17] [µg/mL] | MBC Sau [2, 17] [µg/mL] | MIC Sau [2, 17] [µg/mL] | MIC Eco (Escherichia coli CCUGT) [µg/mL] | MIC Aba [3, 17] [µg/mL] | MIC Pae [4] [µg/mL] | MBC Spy [5, 17] [µg/mL] | MIC Spy [5, 17] [µg/mL] | MIC Kpn [6] [µg/mL] | MBC Efa [7, 17] [µg/mL] | MIC Efa [7, 17] [µg/mL] | MBC S. aureus ATCC 43300 (MRSA) [8] [µg/mL] | MIC S. aureus ATCC 43300 (MRSA) [8] [µg/mL] | Hemolysis (class) [9] | Hemolysis (d, diameter of hemolysis zone) [9] [mm] | further results
CCCCCCCC(=O)NC(C)(C)C(=O)NCC(=O)N[C@@H](CC(C)C)C(=O)NC(C)(C)C(=O)N[C@@H](CCCCN)C(=O)NC(C)(C)C(=O)N[C@@H](CC(C)C)C(=O)NC(C)(C)C(=O)NCC(=O)N[C@H](C(=O)N[C@H](CO)CC(C)C)[C@@H](C)CC [Peptide 6, 1-Oct-Aib-Gly-Leu-Aib-Lys-Aib-Leu-Aib-Gly-Ile-Lol] (Octanoyl-[Aib]GL[Aib]K[Aib]L[Aib]GI[Leu(ol)]) | 16 (≈ 13.7 µM) | 8 (≈ 6.86 µM) | 16 (≈ 13.7 µM) | 8 (≈ 6.86 µM) | > 128 | > 128 | > 128 | 8 (≈ 6.86 µM) | 8 (≈ 6.86 µM) | > 128 | 8 (≈ 6.86 µM) | 8 (≈ 6.86 µM) | 8 (≈ 6.86 µM) | 4 (≈ 3.43 µM) | + | 4 | 
CCCCCCCC(=O)NC(C)(C)C(=O)NCC(=O)N[C@@H](CC(C)C)C(=O)NC(C)(C)C(=O)NCC(=O)NCC(=O)N[C@@H](CC(C)C)C(=O)NC(C)(C)C(=O)N[C@@H](CCCCN)C(=O)N[C@H](C(=O)N[C@H](CO)CC(C)C)[C@@H](C)CC [Peptide 9, 1-Oct-Aib-Gly-Leu-Aib-Gly-Gly-Leu-Aib-Lys-Ile-Lol] (Octanoyl-[Aib]GL[Aib]GGL[Aib]KI[Leu(ol)]) | 16 (≈ 14.1 µM) | 4 (≈ 3.52 µM) | 16 (≈ 14.1 µM) | 16 (≈ 14.1 µM) | > 128 |  | > 128 | 32 (≈ 28.1 µM) | 16 (≈ 14.1 µM) | > 128 | 4 (≈ 3.52 µM) | 4 (≈ 3.52 µM) | 8 (≈ 7.03 µM) | 4 (≈ 3.52 µM) | + | 10 | MBC Aba [3, 17]: 8 µg/mL (≈ 7.03 µM); MIC against A. baumannii, in molar units ([3]; corresponding to 2 and 8 μg/mL): 1.8 to 7.2 µM; MIC P. aeruginosa 101/1477 (IMP-1) [10]: > 128 µg/mL; MIC P. aeruginosa VR-143/97 (VIM-1) [11]: > 128 µg/mL; MIC P. aeruginosa VA-182/00 (VIM-2) [12]: > 128 µg/mL; MIC P. aeruginosa 506/99 (VIM-2) [13]: > 128 µg/mL; MBC A. baumannii SI-648 (OXA-23, OXA-51-like) [14]: 32 µg/mL (≈ 28.1 µM); MIC A. baumannii SI-648 (OXA-23, OXA-51-like) [14]: 32 μg/mL and 32/32 μg/mL; MBC A. baumannii SI-12 (OXA-23) [15]: 32 µg/mL (≈ 28.1 µM); MIC A. baumannii SI-12 (OXA-23) [15]: 32 μg/mL and 32/32 μg/mL; MBC A. baumannii SI-310 (OXA-24) [16]: 32 µg/mL (≈ 28.1 µM); MIC A. baumannii SI-310 (OXA-24) [16]: 32 μg/mL and 32/32 μg/mL
CCCCCCCC(=O)NC(C)(C)C(=O)N[C@@H](CCCCN)C(=O)N[C@@H](CC(C)C)C(=O)N[C@@H](CC(C)C)C(N)=O [Peptide 15, 1-Oct-Aib-Lys-Leu-Leu-NH2] (Octanoyl-[Aib]KLL-NH2) |  | 16 (≈ 27.5 µM) |  | 64 (≈ 110 µM) | 64 (≈ 110 µM) | 64 (≈ 110 µM) | 64 (≈ 110 µM) |  | 16 (≈ 27.5 µM) | 64 (≈ 110 µM) |  | 32 (≈ 54.9 µM) |  |  |  | 5 | MBC Bsu ([1]; ATCC 6633, 18 h): 32 µg/mL (≈ 54.9 µM); MBC Sau ([2]; ATCC 25923, 18 h): > 128 µg/mL; MBC Eco (Escherichia coli CCUGT; CCUGT): > 128 µg/mL; MBC Aba ([3]; ATCC 17978, 18 h): 128 µg/mL (≈ 220 µM); MBC Pae ([4]; ATCC 27853, 18 h): > 128 µg/mL; MBC Spy ([5]; ATCC 12344, 18 h): 16 µg/mL (≈ 27.5 µM); MBC Kpn ([6]; ATCC 13833, 18 h): > 128 µg/mL; MBC Efa ([7]; ATCC 29212, 18 h): 32 µg/mL (≈ 54.9 µM)
